# “Also recorded” adds a separate entry of the source.
# What was measured:
# Assay type in all cases: cell-based, human
# JEG-3 cells [1] = assay: Mitochondrial membrane potential, JC-10 assay (HTTS); conditions: for minimal effective concentration: read-out: MMP ↓, lowest concentration at which the mean response value exceeded the mean control value ± 2*SD (rough binning); for MMP relative to vehicle control (rough binning): after 24 h, in at least one concentration
# Source text: (§1) JEG-3 human choriocarcinoma trophoblastic cells (American Type Culture Collection, VA, United States) were maintained in sterile-filtered Minimum Essential Media (MEM) supplemented with L-glutamine and phenol red (Thermo Fisher Scientific, MA, United States), 10% (v/v) heat-inactivated BenchMark Fetal Bovine Serum (Gemini Bio, CA, United States), 1% (v/v) sodium pyruvate (Thermo Fisher Scientific, MA, United States), and 1% (v/v) penicillin streptomycin (Sigma Aldrich, MO, United States). Cells were maintained in an incubator at 37°C with 5% CO2. JEG-3 cells were cultured in 10 cm tissue culture plates and cell passage numbers were recorded.
# (§2) A total of 42 perfluoroalkyl substances (PFAS) were evaluated (Supplementary Table S1 contains source and purity). PFAS stock solutions were maintained in 100% methanol as previous work has shown certain PFAS degrade when stored in dimethyl sulfoxide (DMSO; [Gaballah et al., 2020]). […] The vehicle control group consisted of 97.5% media + 2.5% methanol to match the concentration of methanol in the media at the highest PFAS concentration tested (500 µM). Menadione (50–500 µM) was used as a positive control for cytotoxicity assessment. PFAS were de-identified and assigned random numbers to eliminate bias. Chemical exposure plate maps were designed so that all experimental conditions were tested in at least technical duplicates per plate. The outer edges of each plate received media alone and were excluded from all analyses to avoid edge effects. Each plate map included 14 technical replicates of the vehicle control group and 14 technical replicates of media only. Biological replicates were defined as separate 384 well plates tested on separate days using different cell passages. The experimental workflow is depicted in Supplementary Figure S1.
# (§3) JEG-3 cells were counted using a Z2 Coulter Particle Counter (Beckman Coulter, CA, United States) and seeded at a density of 2,500 cells per well in black-walled, clear bottom 384 well plates (Corning, #3764) and allowed to adhere overnight. Approximately 24 h later, 384 well plates were imaged using an IncuCyte Zoom live cell imager (Essen BioScience Inc., MI, United States) to obtain baseline cellular confluence measurements prior to chemical dosing (0 h). Media was removed from wells and replaced with fresh media containing chemical treatments (exposure media) using a Viaflo liquid handling device (Integra Biosciences, NH, United States). Within 30 min of exposure media application, plates were again imaged for cellular confluence using the IncuCyte Zoom. Plates were incubated with exposure media for 24 h and then imaged again using the IncuCyte Zoom (24 h).
# The JC-10 assay (Enzo Life Sciences, NY, United States) was used to evaluate mitochondrial membrane potential, the main bioenergetic parameter that regulates respiratory rate, ATP synthesis and reactive oxygen species generation. In cells with polarized mitochondrial membranes, the JC-10 dye localizes to the mitochondrial matrix and forms red fluorescent aggregates (540/590 nm). In cells with depolarized mitochondrial membranes, the JC-10 dye localizes in the cytoplasm and converts to a green fluorescent monomer (490/525 nm). Mitochondrial membrane potential was calculated as the ratio of the green and red fluorescence intensities within a well.
# At the end of the 24 h exposure period, exposure media was removed from the plate. The plate wells were then washed with 1x phosphate buffered saline (1x PBS). After washing, the JC-10 reagent was suspended in fresh 1x PBS and 20 µl was added to each well at a final concentration of 20 μM (Enzo Life Sciences, NY, United States). The plate was incubated for 1 h at 37°C, and the fluorescence intensities at excitation/emission wavelengths of 490/525 nm and 540/590 nm were measured using a CLARIOstar (BMG Labtech, Offenburg, Germany) plate reader, respectively.
# HTTS data were analyzed using a custom data analysis script in R v 1.2.5019 ([R Core Team, 2019]). […]
# JEG-3 cells [2] = assay: CellTiter-Glo luminescent cell viability assay (HTTS); conditions: for Viability ↓, lowest concentration at which the mean response value exceeded the mean control value ± 2*SD (rough binning): decrease; for cell viability relative to vehicle control (rough binning): after 24 h, in at least one concentration
# Source text: as §1, §2, §3
# In the same plate evaluated for mitochondrial membrane potential, cell viability measures were duplexed using the CellTiter-Glo (CTG) Luminescent Cell Viability Assay (Promega, WI, United States). CTG reagent was added to each well at a volume of 20 µl. The plate was left at room temperature to incubate for 5 min and then 20 µl from each well was transferred to a low-volume, round-bottom, white 384 well plate (Corning, NY, United States). The CTG reagent lyses cellular and mitochondrial membranes and binds to adenosine triphosphate (ATP) released by cells, which produces a luminescence signal. The intensity of the luminescence was considered a proxy measure for the number of live cells in a well. The luminescence intensities were measured using the CLARIOstar plate reader.
# HTTS data were analyzed using a custom data analysis script in R v 1.2.5019 ([R Core Team, 2019]). Briefly, raw data points corresponding to the confluence measurements at 0 and 24 h, the fluorescence intensities corresponding to MMP, and the relative luminescence units (RLU) corresponding to cell viability were imported directly from Microsoft Excel into the R programming environment, RStudio. Separate plates run on separate days using different JEG-3 passages were considered as biologic replicates. […]
# JEG-3 cells [3] = assay: Proliferation, change in confluence 0-24 h (IncuCyte Zoom, HTTS); conditions: for minimal effective concentration: read-out: Prolif ↓, lowest concentration at which the mean response value exceeded the mean control value ± 2*SD (rough binning); for Prolif ↑, lowest concentration at which the mean response value exceeded the mean control value ± 2*SD (rough binning): increase; for cellular proliferation relative to vehicle control (rough binning): after 24 h, in at least one concentration
# Source text: as §1, §2, §3
# Plate well bottom images were evaluated using automated cell masking. The automated cell masking program was developed using IncuCyte Zoom base software. Cell masking parameters were defined using a training set of JEG-3 cell images obtained prior to conducting the experiments and following IncuCyte Zoom software recommendations. Briefly, the training images were obtained from cell culture plates with varying levels of JEG-3 cellular confluence (ranging from ∼15% confluent to ∼95% confluent). Parameters for the automated cell masking were first manually set by an experimenter for 3-6 images of low (∼15–30%), medium (∼30–70%), and high confluence (∼70% or greater). The training images were then evaluated by the automated masking program and manually checked to ensure the parameters were sufficiently strict to ignore background (e.g., blank space on the plate well bottom) but adequately sensitive to detect cell borders. The masking program was then implemented on the experimental plates to obtain a baseline cellular confluence measurement at 0 h and a second confluence measurement at 24 h. […]
# [4] = Homo sapiens, JEG-3, 24 h, read-out: Viability EC50 ± SD, JEG-3 cells, 24 h exposure, four-parameter fit, estimates meeting inclusion criteria
# [5] = Homo sapiens, JEG-3, 24 h, read-out: Proliferation EC50 ± SD, JEG-3 cells, 24 h exposure, four-parameter fit, estimates meeting inclusion criteria
# [6] = Homo sapiens, JEG-3, 24 h, read-out: proliferation EC50 ± SE, JEG-3 cells, 24 h
# [7] = JEG-3 cells, raw model output including fits that did not meet inclusion criteria, read-out: Proliferation EC50 ± SD (raw values)
# [8] = JEG-3 cells, 24 h exposure, four-parameter fit, estimates meeting inclusion criteria, read-out: MMP EC50 ± SD
# [9] = JEG-3 cells, 24 h exposure, four-parameter fit, estimates meeting inclusion criteria, read-out: Viability EC50 ± SD
# [10] = JEG-3 cells, 24 h exposure, four-parameter fit, estimates meeting inclusion criteria, read-out: Proliferation EC50 ± SD
structure (smiles),measurement,setting,value
CCN(CC(=O)O)S(=O)(=O)C(F)(F)C(F)(F)C(F)(F)C(F)(F)C(F)(F)C(F)(F)C(F)(F)C(F)(F)F [2-(N-Ethylperfluorooctanesulfonamido)acetic acid],minimal effective concentration,"JEG-3 cells [1]; Homo sapiens, JEG-3, 24 h",150 µM
same,MMP relative to vehicle control (rough binning),JEG-3 cells [1],reduced MMP
same,EC50,JEG-3 cells [2]; [4],203 ± 44.7 µM
same,"Viability ↓, lowest concentration at which the mean response value exceeded the mean control value ± 2*SD (rough binning)","JEG-3 cells [2]; JEG-3 cells, 24 h",250 µM
same,cell viability relative to vehicle control (rough binning),JEG-3 cells [2],reduced cell viability
same,minimal effective concentration,"JEG-3 cells [3]; Homo sapiens, JEG-3, 24 h",250 µM
same,EC50,JEG-3 cells [3]; [5],204 ± 17.7 µM
same,EC50,JEG-3 cells [3]; [6],204 ± 18 µM
same,"Prolif ↑, lowest concentration at which the mean response value exceeded the mean control value ± 2*SD (rough binning)","JEG-3 cells [3]; JEG-3 cells, 24 h",50 µM
"O=C(O)CCC(F)(F)C(F)(F)C(F)(F)C(F)(F)C(F)(F)F [2H,2H,3H,3H-Perfluorooctanoic acid]",EC50,"JEG-3 cells [1]; JEG-3 cells, raw model output including fits that did not meet inclusion criteria, read-out: MMP EC50 ± SD (raw values)",71780 ± 10 µM
same,cell viability relative to vehicle control (rough binning),JEG-3 cells [2],increased cell viability
same,"Prolif ↑, lowest concentration at which the mean response value exceeded the mean control value ± 2*SD (rough binning)","JEG-3 cells [3]; JEG-3 cells, 24 h",50 µM
same,EC50,JEG-3 cells [3]; [7],951 ± 671 µM
same,cellular proliferation relative to vehicle control (rough binning),JEG-3 cells [3],increased cellular proliferation
O=P(O)(OCCC(F)(F)C(F)(F)C(F)(F)C(F)(F)C(F)(F)C(F)(F)F)OCCC(F)(F)C(F)(F)C(F)(F)C(F)(F)C(F)(F)C(F)(F)F [6:2 Fluorotelomer phosphate diester],EC50,"JEG-3 cells [1]; Homo sapiens, JEG-3, read-out: MMP EC50 ± SD (raw values), JEG-3 cells, raw model output including fits that did not meet inclusion criteria",64402 ± 10 µM
same,"Viability ↑, lowest concentration at which the mean response value exceeded the mean control value ± 2*SD (rough binning)","JEG-3 cells [2]; JEG-3 cells, 24 h, increase",112.5 µM
same,cell viability relative to vehicle control (rough binning),JEG-3 cells [2],increased cell viability
same,minimal effective concentration,"JEG-3 cells [3]; Homo sapiens, JEG-3, 24 h",188 µM
same,EC50,JEG-3 cells [3]; [5],142 ± 39.2 µM
same,EC50,JEG-3 cells [3]; [6],142 ± 39.4 µM
same,"Prolif ↑, lowest concentration at which the mean response value exceeded the mean control value ± 2*SD (rough binning)","JEG-3 cells [3]; JEG-3 cells, 24 h",37.5 µM
same,cellular proliferation relative to vehicle control (rough binning),JEG-3 cells [3],reduced cellular proliferation; also recorded: increased cellular proliferation
O=P(O)(O)OCCC(F)(F)C(F)(F)C(F)(F)C(F)(F)C(F)(F)C(F)(F)F [6:2 Fluorotelomer phosphate monoester],EC50,JEG-3 cells [1]; [8],248 ± 62.1 µM
same,EC50,"JEG-3 cells [2]; JEG-3 cells, 24 h, read-out: viability EC50 ± SE",183 ± 22 µM
same,EC50,JEG-3 cells [2]; [9],183 ± 21.7 µM
same,EC50,"JEG-3 cells [3]; JEG-3 cells, 24 h, read-out: proliferation EC50 ± SE",193 ± 4 µM
same,EC50,JEG-3 cells [3]; [10],193 ± 3.8 µM
O=C(O)C(F)(F)C(F)(F)C(F)(F)C(F)(F)C(F)(F)C(F)(F)C(F)F [8-H-Perfluorooctanoic acid],EC50,JEG-3 cells [1]; [8],147 ± 27.1 µM
same,EC50,JEG-3 cells [2]; [9],318 ± 183 µM
same,EC50,JEG-3 cells [3]; [10],441 ± 18.1 µM
O=P(O)(OCCC(F)(F)C(F)(F)C(F)(F)C(F)(F)C(F)(F)C(F)(F)C(F)(F)C(F)(F)F)OCCC(F)(F)C(F)(F)C(F)(F)C(F)(F)C(F)(F)C(F)(F)C(F)(F)C(F)(F)F [8:2 Fluorotelomer phosphate diester],"MMP ↓, lowest concentration at which the mean response value exceeded the mean control value ± 2*SD (rough binning)","JEG-3 cells [1]; JEG-3 cells, 24 h, decrease",350 µM
same,MMP relative to vehicle control (rough binning),JEG-3 cells [1],reduced MMP
same,"Viability ↓, lowest concentration at which the mean response value exceeded the mean control value ± 2*SD (rough binning)","JEG-3 cells [2]; JEG-3 cells, 24 h",50 µM
same,cell viability relative to vehicle control (rough binning),JEG-3 cells [2],reduced cell viability
same,"Prolif ↓, lowest concentration at which the mean response value exceeded the mean control value ± 2*SD (rough binning)","JEG-3 cells [3]; JEG-3 cells, 24 h, decrease",100 µM
same,cellular proliferation relative to vehicle control (rough binning),JEG-3 cells [3],reduced cellular proliferation
O=P(O)(O)OCCC(F)(F)C(F)(F)C(F)(F)C(F)(F)C(F)(F)C(F)(F)C(F)(F)C(F)(F)F [8:2 Fluorotelomer phosphate monoester],EC50,JEG-3 cells [1]; [8],312 ± 29.8 µM
same,EC50,JEG-3 cells [2]; [9],360 ± 30.3 µM
same,EC50,JEG-3 cells [3]; [10],251 ± 37.6 µM
O=S(=O)(O)CCC(F)(F)C(F)(F)C(F)(F)C(F)(F)C(F)(F)C(F)(F)C(F)(F)C(F)(F)F [8:2 Fluorotelomer sulfonic acid],EC50,"JEG-3 cells [1]; Homo sapiens, JEG-3, 24 h, read-out: MMP EC50 ± SD, JEG-3 cells, 24 h exposure, four-parameter fit, estimates meeting inclusion criteria",331 ± 5.7 µM
same,EC50,JEG-3 cells [2]; [4],160 ± 45.7 µM
same,EC50,"JEG-3 cells [2]; Homo sapiens, JEG-3, 24 h, read-out: viability EC50 ± SE, JEG-3 cells, 24 h",160 ± 46 µM
same,EC50,JEG-3 cells [3]; [5],321 ± 171 µM
O=C(O)C(F)(F)C(F)(F)C(F)(F)C(F)(F)C(F)(F)C(F)(F)C(F)(F)C(F)F [9-H-Perfluorononanoic acid],EC50,JEG-3 cells [1]; [8],187 ± 27.6 µM
same,EC50,JEG-3 cells [2]; [9],350 ± 43.1 µM
same,EC50,JEG-3 cells [3]; [7],1230 ± 118 µM
"O=C(O)C(F)(F)OC(F)(F)C(F)(F)OC(F)(F)C(F)(F)OC(F)(F)F [Perfluoro-3,6,9-trioxadecanoic acid]",minimal effective concentration,"JEG-3 cells [1]; Homo sapiens, JEG-3, 24 h",450 µM
same,MMP relative to vehicle control (rough binning),JEG-3 cells [1],reduced MMP
same,EC50,JEG-3 cells [2]; [4],267 ± 26.8 µM
same,minimal effective concentration,"JEG-3 cells [3]; Homo sapiens, JEG-3, 24 h",350 µM
same,EC50,JEG-3 cells [3]; [5],303 ± 30.1 µM
same,cellular proliferation relative to vehicle control (rough binning),JEG-3 cells [3],reduced cellular proliferation

# From paper PMC9081605, “A High-Throughput Toxicity Screen of 42 Per- and Polyfluoroalkyl Substances (PFAS) and Functional Assessment of Migration and Gene Expression in Human Placental Trophoblast Cells” (Frontiers in Toxicology, 2022)
